According to patent US9150519B2, “6-amino-pyrimidine-4-carboxamide derivatives and related compounds which bind to the sphingosine 1-phosphate (S1P) receptor for the treatment of multiple sclerosis” (MERCK SERONO SA, priority 2007, dated 2015):

Columns and labels:
S1P3 = S1P3 (Homo sapiens (Human), UniProt Q99500); test: 35S-GTPγS binding assay, S1P3 membranes; type: biochemical; conditions: membranes from CHO cells expressing S1P3; read-out: S1P3 GTPyS EC50
Protocol: (§1) Membranes were prepared from CHO cells expressing S1P1 or S1P3 for use in ligand and […] binding studies. Cells were suspended in 50 mM TRIS, pH 7.4, 2 mM EDTA, 250 mM Sucrose (buffer A) and 1× Complete protease inhibitor cocktail (Roche), and disrupted at 4° C. by nitrogen decompression using a cell disruption bomb (Parr Instrument). Following centrifugation at 1000 RPM for 10 min at 4° C., the supernatant was suspended in buffer A and centrifuged again at 19000 RPM for 60 min at 4° C. The pellet was then suspended in 10 mM HEPES, pH 7.4, 1 mM EDTA, 250 mM Sucrose (Buffer B), and 1× Complete EDTA-free protease inhibitor cocktail and homogenized using a potter. Membranes were flash frozen in liquid nitrogen and stored at −80° C. [33P]sphingosine 1-phosphate (3000 Ci/mmol; American Radiolabeled Chemicals, Inc.) was added to test compounds in DMSO. Membranes and WGA SPA beads (GE Healthcare) were added to give a final volume of 100 μl in 96-well plates with assay concentrations of 25 μM or 10 μM [33P]sphingosine 1-phosphate (respectively for S1P1 or S1P3), 50 mM HEPES, pH 7.5, 5 mM MgCl2, 100 mM NaCl, 0.4% fatty acid-free BSA, 1-5 μg/well of proteins and 100 μg/well of WGA SPA beads. Binding was performed for 60 min at room temperature on a shaker and bound radioactivity was measured on a PerkinElmer 1450 MicroBeta counter. Specific binding was calculated by subtracting remaining radioactivity in the presence of 1000-fold excess of unlabeled S1P. Binding data were analyzed using the GraphPad Prism program.
Measurements of ^35S-GTPγS Binding: Membranes (1 to 10 μg protein) prepared as described above, were incubated in 96-well Scintiplates (PerkinElmer) with test compounds diluted in DMSO, in 180 μl of 20 mM HEPES, pH 7.4, 10 mM MgCl2, 2 μg/well Saponin, 0.2% fatty acid free BSA (Assay buffer), 140 mM NaCl and 1.7 μM GDP. The assay was initiated with the addition of 20 μl of 1.5 nM [35S]-GTPγS (1100 Ci/mmol; GE Healthcare) in assay buffer. After 60 min incubation at 30° C. on a shaker, plates were centrifuged for 10 min at 2000 RPM. Supernatant was discarded and membrane bound radioactivity was measured on a PerkinElmer 1450 MicroBeta counter. Triplicate samples were averaged and expressed as % response relative to SIP activation in absence of compound (n=2).

S1P1 = S1P1 (Homo sapiens (Human), UniProt P21453); test: 35S-GTPγS binding assay, S1P1 membranes; type: biochemical; conditions: membranes from CHO cells expressing S1P1; read-out: S1P1 GTPyS EC50
Chain of S1P1 (P21453 whole entry, species assumed): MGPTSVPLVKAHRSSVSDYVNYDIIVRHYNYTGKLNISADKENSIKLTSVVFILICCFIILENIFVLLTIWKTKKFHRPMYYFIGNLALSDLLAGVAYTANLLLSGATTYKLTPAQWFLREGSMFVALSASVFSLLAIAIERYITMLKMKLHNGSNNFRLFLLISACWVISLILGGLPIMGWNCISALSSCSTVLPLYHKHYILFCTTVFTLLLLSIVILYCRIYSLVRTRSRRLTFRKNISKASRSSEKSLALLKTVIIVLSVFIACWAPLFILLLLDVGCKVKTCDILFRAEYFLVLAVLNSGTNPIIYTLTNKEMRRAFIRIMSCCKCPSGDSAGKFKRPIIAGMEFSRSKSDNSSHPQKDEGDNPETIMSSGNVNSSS
Protocol: as §1, with “Membranes and WGA SPA beads (GE Healthcare) were added to give a final volume of 100 μl in 96-well plates with assay concentrations of 25 μM or 10 μM [33P]sphingosine 1-phosphate (respectively for S1P1 or S1P3), 50 mM HEPES, pH 7.5, 5 mM MgCl2, 100 mM NaCl, 0.4% fatty acid-free BSA, 1-5 μg/well of proteins and 100 μg/well of WGA SPA beads.” left out
The assay was initiated with the addition of 20 μl of 1.5 nM [35S]-GTPγS (1100 Ci/mmol; GE Healthcare) in assay buffer. After 60 min incubation at 30° C. on a shaker, plates were centrifuged for 10 min at 2000 RPM. Supernatant was discarded and membrane bound radioactivity was measured on a PerkinElmer 1450 MicroBeta counter. Triplicate samples were averaged and expressed as % response relative to SIP activation in absence of compound (n=2).

Chain of S1P3 (Q99500 whole entry, species assumed): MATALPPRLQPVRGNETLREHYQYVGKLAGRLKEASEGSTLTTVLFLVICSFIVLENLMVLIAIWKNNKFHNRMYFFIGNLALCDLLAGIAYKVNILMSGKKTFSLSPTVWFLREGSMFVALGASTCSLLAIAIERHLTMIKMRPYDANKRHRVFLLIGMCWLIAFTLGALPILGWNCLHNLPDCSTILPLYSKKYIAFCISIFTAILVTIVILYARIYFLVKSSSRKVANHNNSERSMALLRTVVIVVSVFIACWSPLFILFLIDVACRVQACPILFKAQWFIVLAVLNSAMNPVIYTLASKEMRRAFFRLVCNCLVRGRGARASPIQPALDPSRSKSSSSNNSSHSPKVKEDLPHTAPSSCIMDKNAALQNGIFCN

EC50 (S1P3) [nM]	EC50 (S1P1) [nM]	SMILES
> 30000	–	O=C(Nc1ccc(O)c2ccccc12)c1cc(NC2CCCCC2)ncn1 [Example 1-5]
62	–	Cc1cc(S(=O)(=O)NCCC(=O)O)ccc1NC(=O)c1cc(N(CC2CC2)C2CCCCC2)ncn1 [Example 1-62]
> 20000	–	CCCN(CC1CC1)c1cc(C(=O)Nc2ccc(S(N)(=O)=O)cc2C)ncn1 [Example 1-56]
> 30000	240	O=C(Nc1ccc(O)cc1)c1cc(OC2CCCCC2)ncn1 [Example 1-26]
2320	370	CCCN(CCC)c1cc(C(=O)Nc2ccc(O)cc2)ncn1 [Example 1-22]
> 30000	–	Cc1cc(O)ccc1NC(=O)c1cc(NC2CCCCC2)ncn1 [Example 1-1]
> 20000	48	O=C(Nc1cccc2[nH]ncc12)c1cc(N(CC2CC2)C2CCCCC2)ncn1 [Example 1-127]
> 20000	–	CCCN(CC1CC1)c1cc(C(=O)Nc2cccc3[nH]ccc23)ncn1 [Example 1-113]
> 30000	–	CS(=O)(=O)Nc1ccc(NC(=O)c2cc(NC3CCCCC3)ncn2)cc1 [Example 1-13]
32000	1780	CN(c1cc(C(=O)Nc2ccc3c(c2)CC(=O)N3)ncn1)C1CCCCC1 [Example 1-41]
416	13	CCCN(CC1CC1)c1cc(C(=O)Nc2ccc3[nH]ncc3c2)ncn1 [Example 1-45]
> 20000	–	CCCN(CC1CC1)c1cc(C(=O)Nc2ccc(CO)cc2C)ncn1 [Example 1-85]
> 20000	2920	CCC(C)Oc1cc(C(=O)Nc2ccc(O)cc2C)ncn1 (stereo not shown) [Example 1-36]
> 30000	–	O=C(Nc1ccc2[nH]ncc2c1)c1cc(NC2CCCCC2)ncn1 [Example 1-28]
5230	1070	O=C(Nc1ccnc2ccccc12)c1cc(NC2CCCCC2)ncn1 [Example 1-16]
1310	–	Cc1cc(S(=O)(=O)NCCCC(=O)O)ccc1NC(=O)c1cc(N(CC2CC2)C2CCCCC2)ncn1 [Example 1-63]
259	12	Cc1cc(S(=O)(=O)NCC(=O)O)ccc1NC(=O)c1cc(N(CC2CC2)C2CCCCC2)ncn1 [Example 1-61]
> 30000	380	O=C(Nc1ccc(O)cc1C(F)(F)F)c1cc(NC2CCCCC2)ncn1 [Example 1-15]
> 20000	39	Cc1cc(S(N)(=O)=O)ccc1NC(=O)c1cc(N(CC(C)C)C2CCCC2)ncn1 [Example 1-58]
> 20000	51	CCCN(c1cc(C(=O)Nc2ccc(S(N)(=O)=O)cc2C)ncn1)C(C)C [Example 1-60]
> 20000	63	CCCN(CC1CC1)c1cc(C(=O)Nc2ccc(S(=O)(=O)NC)cc2C)ncn1 [Example 1-109]
> 30000	–	O=C(Nc1ccc(O)cc1F)c1cc(NC2CCCCC2)ncn1 [Example 1-7]
> 20000	12	CCCN(CC1CC1)c1cc(C(=O)Nc2cc3cn[nH]c3cc2C)ncn1 [Example 1-71]
2470	5.8	CNS(=O)(=O)c1ccc(NC(=O)c2cc(N(CC3CC3)C3CCCCC3)ncn2)c(C)c1 [Example 1-105]
> 30000	–	O=C(Nc1ccc(O)cc1Cl)c1cc(NC2CCCCC2)ncn1 [Example 1-8]
> 20000	–	CCCN(CC1CC1)c1cc(C(=O)Nc2ccc(CNCC(=O)O)cc2C)ncn1 [Example 1-100]
777	48	COC(=O)CCNCc1ccc(NC(=O)c2cc(N(CC3CC3)C3CCCCC3)ncn2)cc1 [Example 1-76]
666	–	CC(C)CN(c1cc(C(=O)Nc2ccc3[nH]ncc3c2)ncn1)C1CCCC1 [Example 1-69]

EC50 (S1P3) [nM]	EC50 (S1P1) [nM]	SMILES
236	–	O=C(Nc1ccc(CN2CC(C(=O)O)C2)cc1)c1cc(N(CC2CC2)C2CCCCC2)ncn1 [Example 1-84]
5650	–	CCCN(CC1CC1)c1cc(C(=O)Nc2ccc(S(=O)(=O)NCCC(=O)O)cc2C)ncn1 [Example 1-99]
1990	2.9	CCCN(c1cc(C(=O)Nc2ccc(S(N)(=O)=O)cc2C)ncn1)C1CCCCC1 [Example 1-54]
3300	19	COCCNS(=O)(=O)c1ccc(NC(=O)c2cc(N(CC3CC3)C3CCCCC3)ncn2)c(C)c1 [Example 1-107]
> 20000	1520	CN(c1cc(C(=O)Nc2ccc(S(=O)(=O)NCC(O)CO)cc2)ncn1)C1CCCCC1 (stereo not shown) [Example 1-40]
> 30000	440	Cc1cc(S(N)(=O)=O)ccc1NC(=O)c1cc(NC2CCCCC2)ncn1 [Example 1-18]
> 30000	65	Cc1cc(S(N)(=O)=O)ccc1NC(=O)c1cc(N(C)C2CCCCC2)ncn1 [Example 1-29]
> 30000	–	O=C(Nc1ccc(CCO)cc1)c1cc(NC2CCCCC2)ncn1 [Example 1-52]
47500	2	Cc1cc(S(N)(=O)=O)ccc1NC(=O)c1cc(N(CC2CC2)C2CCCCC2)ncn1 [Example 1-38]
100000	24.6	Cc1cc(O)ccc1NC(=O)c1cc(N(CC2CC2)C2CCCCC2)ncn1 [Example 1-33]
> 20000	6	O=C(Nc1cccc2[nH]ccc12)c1cc(N(CC2CC2)C2CCCCC2)ncn1 [Example 1-126]
3270	6	Cc1cc2[nH]ncc2cc1NC(=O)c1cc(N(CC2CC2)C2CCCCC2)ncn1 [Example 1-47]
> 20000	418	CN(c1cc(C(=O)Nc2ccc3[nH]ncc3c2)ncn1)C1CCCCC1 [Example 1-35]
> 20000	9	O=C(Nc1ccc2[nH]ncc2c1)c1cc(N(CC2CC2)C2CCCCC2)ncn1 [Example 1-44]
> 30000	400	CCN(c1cc(C(=O)Nc2ccc(O)cc2C)ncn1)C1CCCCC1 [Example 1-25]
> 30000	–	CN(c1cc(C(=O)Nc2ccc(O)cc2)ncn1)C1CCCCC1 [Example 1-19]
–	860	CCCN(CC1CC1)c1cc(C(=O)Nc2ccc3[nH]nc(CCC(=O)OC)c3c2)ncn1 [Example 1-123]
–	265	CCCN(CC1CC1)c1cc(C(=O)Nc2ccc(CN(C)C)cc2C)ncn1 [Example 1-94]
–	328	O=C(Nc1ccc(CN2CCNCC2)cc1)c1cc(N(CC2CC2)C2CCCCC2)ncn1 [Example 1-78]
–	193	CS(=O)(=O)c1ccc(NC(=O)c2cc(N(CC3CC3)C3CCCCC3)ncn2)cc1 [Example 1-112]
–	594	CCCN(CC1CC1)c1cc(C(=O)Nc2cccc3[nH]ncc23)ncn1 [Example 1-134]
–	807	CCCN(CC1CC1)c1cc(C(=O)Nc2ccc(CN3CCC3)cc2C)ncn1 [Example 1-154]
> 30000	–	O=C(Nc1ccc(O)cc1)c1cc(NC2CCCCC2)ncn1 [Example 1-53]
–	1990	NS(=O)(=O)c1ccc(NC(=O)c2cc(NC3CCCCC3)ncn2)cc1 [Example 1-17]
–	38	CCCN(CC1CC1)c1cc(C(=O)Nc2cccc(-n3ccnc3)c2)ncn1 [Example 1-147]
–	208	CCCN(CC1CC1)c1cc(C(=O)Nc2ccc(S(=O)(=O)NCC(=O)O)cc2C)ncn1 [Example 1-103]
–	2290	CCCN(CC1CC1)c1cc(C(=O)Nc2ccc(CN3CCCC(CO)C3)cc2C)ncn1 (stereo not shown) [Example 1-141]
